Measurements from paper PMC12310023 (PLOS Neglected Tropical Diseases, 2025).

Columns and labels:
[1] = system: NLuc-expressing C. parvum; experiment: NLuc C. parvum IFNγ-KO mouse infection model, oocyst shedding; type: in vivo
PKD3 = PKD3 (Homo sapiens, UniProt O94806); experiment: Kinome profiling; type: biochemical
[2] = Dog PK (r10 PO 1, r11 IV 1, r12-r14 PO 3, 10, 30 mg/kg); type: in vivo; conditions: after BKI-1708 PO 1 mg/kg
PPARγ = target: T1, PPARγ (Homo sapiens, UniProt P37231); experiment: Cerep binding assay; conditions: agonist radioligand, mean
T1 construct: Cerep (Eurofins, France)
T1 sequence (P37231 whole entry): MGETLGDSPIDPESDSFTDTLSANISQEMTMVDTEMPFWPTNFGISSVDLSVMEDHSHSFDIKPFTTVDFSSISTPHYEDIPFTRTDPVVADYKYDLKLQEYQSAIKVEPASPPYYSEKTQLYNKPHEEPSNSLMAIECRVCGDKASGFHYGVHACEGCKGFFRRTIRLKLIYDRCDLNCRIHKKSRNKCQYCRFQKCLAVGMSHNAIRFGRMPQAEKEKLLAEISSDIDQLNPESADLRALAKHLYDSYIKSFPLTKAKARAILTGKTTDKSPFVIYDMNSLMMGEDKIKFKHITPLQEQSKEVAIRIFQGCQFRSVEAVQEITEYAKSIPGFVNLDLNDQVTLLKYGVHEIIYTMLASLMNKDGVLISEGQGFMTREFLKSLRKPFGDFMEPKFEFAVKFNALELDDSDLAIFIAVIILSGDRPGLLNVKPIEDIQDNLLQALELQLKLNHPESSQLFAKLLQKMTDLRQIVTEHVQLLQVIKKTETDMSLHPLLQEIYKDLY

5-HT2B = target: T2, 5-HT2B (Homo sapiens, UniProt P41595); experiment: Cerep binding assay; conditions: agonist radioligand, mean, read-out: % inhibition of control specific binding
T2 construct: Cerep (Eurofins, France)
T2 sequence (P41595 whole entry): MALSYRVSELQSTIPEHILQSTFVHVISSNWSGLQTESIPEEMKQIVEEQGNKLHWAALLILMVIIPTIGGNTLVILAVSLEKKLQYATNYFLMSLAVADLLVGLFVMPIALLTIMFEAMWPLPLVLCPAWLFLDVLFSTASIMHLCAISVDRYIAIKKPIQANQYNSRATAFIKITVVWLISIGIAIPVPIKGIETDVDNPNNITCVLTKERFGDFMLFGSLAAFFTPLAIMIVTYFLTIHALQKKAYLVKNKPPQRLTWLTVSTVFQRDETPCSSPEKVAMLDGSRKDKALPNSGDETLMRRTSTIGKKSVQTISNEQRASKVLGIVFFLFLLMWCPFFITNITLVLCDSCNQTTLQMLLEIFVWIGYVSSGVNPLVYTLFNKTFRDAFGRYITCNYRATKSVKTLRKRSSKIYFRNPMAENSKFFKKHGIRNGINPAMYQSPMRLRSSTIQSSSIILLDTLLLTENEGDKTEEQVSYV

CYP2C19 = CYP2C19 (Homo sapiens, UniProt P33261); experiment: in vitro; conditions: recombinant CYP2C19 supersomes
Sequence of CYP2C19 (P33261 whole entry): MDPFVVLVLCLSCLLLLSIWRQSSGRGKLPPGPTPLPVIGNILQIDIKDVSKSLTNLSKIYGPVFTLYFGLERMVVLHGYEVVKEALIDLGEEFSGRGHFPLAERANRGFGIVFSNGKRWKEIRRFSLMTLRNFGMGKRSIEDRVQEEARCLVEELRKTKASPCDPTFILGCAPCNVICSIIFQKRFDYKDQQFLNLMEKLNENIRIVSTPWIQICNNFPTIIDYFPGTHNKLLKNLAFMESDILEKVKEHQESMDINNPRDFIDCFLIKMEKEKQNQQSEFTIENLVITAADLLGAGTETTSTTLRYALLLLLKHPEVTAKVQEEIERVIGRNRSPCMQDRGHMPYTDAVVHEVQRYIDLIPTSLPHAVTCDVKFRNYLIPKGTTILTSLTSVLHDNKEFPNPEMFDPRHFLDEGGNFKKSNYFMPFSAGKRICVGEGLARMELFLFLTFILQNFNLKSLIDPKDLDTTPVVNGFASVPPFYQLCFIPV

hERG = hERG (Homo sapiens, UniProt Q12809); experiment: cell-based
Sequence of hERG (Q12809 whole entry): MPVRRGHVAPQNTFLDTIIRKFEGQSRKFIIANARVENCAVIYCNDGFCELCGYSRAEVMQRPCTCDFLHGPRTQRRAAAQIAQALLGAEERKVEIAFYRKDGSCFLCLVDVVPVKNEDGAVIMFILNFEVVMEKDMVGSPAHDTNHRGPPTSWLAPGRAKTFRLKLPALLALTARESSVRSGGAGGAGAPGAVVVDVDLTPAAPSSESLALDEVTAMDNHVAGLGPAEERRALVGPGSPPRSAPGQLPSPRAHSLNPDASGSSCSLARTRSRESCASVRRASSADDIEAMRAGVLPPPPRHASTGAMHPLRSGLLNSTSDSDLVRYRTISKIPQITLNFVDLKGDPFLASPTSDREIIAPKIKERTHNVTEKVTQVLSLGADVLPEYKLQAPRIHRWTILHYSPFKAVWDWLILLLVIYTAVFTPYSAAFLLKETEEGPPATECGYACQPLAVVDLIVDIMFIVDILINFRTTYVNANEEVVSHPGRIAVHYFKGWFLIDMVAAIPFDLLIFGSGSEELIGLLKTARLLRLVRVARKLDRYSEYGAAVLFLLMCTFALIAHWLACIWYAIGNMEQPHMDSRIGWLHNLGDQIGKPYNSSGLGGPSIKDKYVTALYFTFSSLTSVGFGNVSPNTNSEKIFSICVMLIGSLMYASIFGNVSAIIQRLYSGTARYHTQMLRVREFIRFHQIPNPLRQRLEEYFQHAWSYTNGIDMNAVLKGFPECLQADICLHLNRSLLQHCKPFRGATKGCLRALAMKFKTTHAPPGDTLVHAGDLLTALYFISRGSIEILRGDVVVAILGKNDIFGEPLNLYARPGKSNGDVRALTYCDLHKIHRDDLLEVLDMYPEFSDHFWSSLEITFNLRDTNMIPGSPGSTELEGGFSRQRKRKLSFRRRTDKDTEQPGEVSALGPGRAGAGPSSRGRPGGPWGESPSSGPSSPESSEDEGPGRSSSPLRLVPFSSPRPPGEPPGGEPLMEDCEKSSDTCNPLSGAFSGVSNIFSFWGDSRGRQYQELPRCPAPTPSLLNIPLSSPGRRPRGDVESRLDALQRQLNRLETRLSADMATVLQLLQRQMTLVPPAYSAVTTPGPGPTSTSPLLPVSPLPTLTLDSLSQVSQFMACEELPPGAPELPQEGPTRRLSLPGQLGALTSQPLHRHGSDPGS

Cytotoxicity = conditions: human, HEPG2 hepatocyte cell line
Hepatocyte stability = conditions: monkey
[3] = system: micronuclei in interphase cells; experiment: In vitro micronucleus (IVMN) test
zebrafish embryos = experiment: Zebrafish developmental safety assay; conditions: 4 days
CYP1A2 [4] = experiment: CYP Induction Assay in dog hepatocytes; conditions: 30 and 100 μM, 48 h
[5] = Plasma protein binding, equilibrium dialysis; conditions: rat
[6] = Plasma protein binding, equilibrium dialysis; conditions: dog
CYP1A2 [7] = target: T3, CYP1A2 (Homo sapiens, UniProt P05177); experiment: CYP reaction phenotyping, recombinant supersomes
T3 sequence (P05177 1-516): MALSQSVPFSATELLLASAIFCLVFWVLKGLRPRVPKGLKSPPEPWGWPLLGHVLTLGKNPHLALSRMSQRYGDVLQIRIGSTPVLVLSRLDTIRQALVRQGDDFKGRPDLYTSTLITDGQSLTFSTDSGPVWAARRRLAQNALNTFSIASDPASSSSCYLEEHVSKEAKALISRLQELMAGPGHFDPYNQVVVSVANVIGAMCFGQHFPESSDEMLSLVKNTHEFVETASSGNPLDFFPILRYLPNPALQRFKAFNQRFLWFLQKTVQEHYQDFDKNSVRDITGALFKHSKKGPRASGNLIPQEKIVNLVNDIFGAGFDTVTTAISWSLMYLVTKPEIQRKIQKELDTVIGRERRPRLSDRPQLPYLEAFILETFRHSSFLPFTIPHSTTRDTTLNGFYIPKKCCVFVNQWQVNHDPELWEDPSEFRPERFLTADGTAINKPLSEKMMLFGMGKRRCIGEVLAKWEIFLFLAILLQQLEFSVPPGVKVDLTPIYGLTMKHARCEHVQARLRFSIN

[8] = Mouse plasma, brain and GI exposure PK, Balb/c, 30 mg/kg PO; conditions: 6 h, after BKI-1708

Sequence of PKD3 (O94806 whole entry): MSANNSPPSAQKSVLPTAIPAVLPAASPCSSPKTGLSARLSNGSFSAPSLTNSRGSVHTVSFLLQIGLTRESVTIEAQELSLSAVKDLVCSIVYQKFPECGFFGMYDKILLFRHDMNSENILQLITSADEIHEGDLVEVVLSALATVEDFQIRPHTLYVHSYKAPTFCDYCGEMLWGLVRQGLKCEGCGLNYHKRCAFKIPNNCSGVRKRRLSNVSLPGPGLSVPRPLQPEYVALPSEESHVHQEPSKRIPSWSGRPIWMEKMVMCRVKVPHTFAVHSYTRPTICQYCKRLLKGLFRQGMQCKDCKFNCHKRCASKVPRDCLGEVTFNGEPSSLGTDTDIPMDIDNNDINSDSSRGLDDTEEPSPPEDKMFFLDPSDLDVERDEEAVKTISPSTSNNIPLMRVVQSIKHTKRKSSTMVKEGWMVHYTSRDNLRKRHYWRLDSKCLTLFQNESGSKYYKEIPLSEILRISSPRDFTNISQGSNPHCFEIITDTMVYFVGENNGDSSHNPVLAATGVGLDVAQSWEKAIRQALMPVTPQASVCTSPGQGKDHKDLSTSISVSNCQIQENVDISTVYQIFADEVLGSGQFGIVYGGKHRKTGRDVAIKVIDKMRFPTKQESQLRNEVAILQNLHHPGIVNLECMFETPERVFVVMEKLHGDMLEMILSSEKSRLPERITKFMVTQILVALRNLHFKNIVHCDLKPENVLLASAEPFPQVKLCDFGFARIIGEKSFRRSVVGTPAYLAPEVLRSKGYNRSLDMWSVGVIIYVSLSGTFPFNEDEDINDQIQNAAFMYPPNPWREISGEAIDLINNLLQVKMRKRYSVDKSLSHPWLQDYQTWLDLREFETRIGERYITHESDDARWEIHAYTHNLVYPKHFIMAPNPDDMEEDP

## CC1(C)Cn2nc(-c3ccc4cc(OC5CC5)ccc4c3)c(C(N)=O)c2NC1O (stereo not drawn) [M2]
[1]; M2 8 mg/kg x 3 days PO
  day p.i. oocyst shedding reached LoD: 17 days
[1]; M2 15 mg/kg x 3 days PO
  day p.i. oocyst shedding below LoD: ≤ 10 days
[1]; M2 30 mg/kg x 3 days PO
  day p.i. oocyst shedding below LoD: ≤ 10 days
PKD3
  IC50: 0.23 µM
[2]
  M2 AUC0-inf: 196 ± 12 µmol·min/L
PPARγ; 10 μM
  % inhibition of control specific binding: 70.1%
PPARγ; read-out: % inhibition of control specific binding
  inhibition at 10 µM: 70%
5-HT2B
  inhibition at 10 µM: 57.1%
CYP2C19
  CLint scaled: < 0.117 mL/min/kg
  half-life: > 4 h
hERG
  IC50: 6.2 µM
Cytotoxicity
  CC50: 13.4 µM
Hepatocyte stability; liver microsomes and primary hepatocytes
  LM:hepatocyte CLint_scaled ratio: 5.5
Hepatocyte stability; primary hepatocytes
  CLint scaled: 10 mL/min/kg
  half-life: 6.48 h
  hepatocyte CLint: 3.6 µL/min/1e6 cells
[3]
  IVMN test result: negative
Zebrafish embryos
  concentration up to which zebrafish embryo development was not affected: 20 µM
CYP1A2 [4]
  induction of CYP1A2: strong inducers
[5]
  fraction unbound: 0.06
[6]
  fraction unbound: 0.1
CYP1A2 [7]
  % contribution: 47.0%
  CLint: 0.115 µL/min/pmol
[8]
  M2 peak level in jejunum, ileum, cecum/colon: > 1 µM
